Measured values taken from PubChem BioAssay (NCI).
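How tested: cells in 96-well plates exposed to compound for 48 hours at five concentrations. At the GI50, growth is halved. The concentration for full growth arrest is given as TGI.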

Columns and labels:
Test in all cases: growth of human tumour cells (NCI), 48 h; in the data active means GI50 below about 0.43 µM; inactive means the rest
[1] = tested on: SNB-75 CNS
[2] = tested on: 786-0 renal
[3] = tested on: NCI-H460 lung
[4] = tested on: RXF 393 renal
[5] = tested on: HCC-2998 colon
[6] = tested on: UACC-257 melanoma
[7] = tested on: MALME-3M melanoma
[8] = tested on: SW-620 colon
[9] = tested on: PC-3 prostate
[10] = tested on: UO-31 renal
[11] = tested on: ACHN renal
[12] = tested on: CCRF-CEM leukemia
[13] = tested on: HOP-92 NSCLC
[14] = tested on: HT29 colon
[15] = tested on: RPMI-8226 leukemia
[16] = tested on: COLO 205 colon
[17] = tested on: EKVX NSCLC
[18] = tested on: HOP-62 NSCLC
[19] = tested on: K-562 leukemia
[20] = tested on: SNB-19 CNS
[21] = tested on: SN12C renal
[22] = tested on: CAKI-1 renal
[23] = tested on: SK-MEL-28 melanoma
[24] = tested on: SR leukemia
[25] = tested on: SF-295 CNS
[26] = tested on: MOLT-4 leukemia
[27] = tested on: U251 CNS
[28] = tested on: NCI-H522 lung
[29] = tested on: A549 NSCLC
[30] = tested on: DU-145 prostate
[31] = tested on: HCT-116 colon
[32] = tested on: HL-60(TB) leukemia
[33] = tested on: SK-OV-3 ovarian
[34] = tested on: MDA-MB-231 breast
[35] = tested on: SK-MEL-2 melanoma
[36] = tested on: HCT-15 colon
[37] = tested on: NCI-H23 lung
[38] = tested on: IGROV1 ovarian
[39] = tested on: NCI-H226 lung
[40] = tested on: SK-MEL-5 melanoma
[41] = tested on: UACC-62 melanoma
[42] = tested on: OVCAR-3 ovarian
[43] = tested on: OVCAR-5 ovarian
[44] = tested on: NCI/ADR-RES ovarian
[45] = tested on: SF-268 CNS
[46] = tested on: TK-10 renal
[47] = tested on: OVCAR-4 ovarian
[48] = tested on: M14 melanoma
[49] = tested on: BT-549 breast
[50] = tested on: MDA-MB-435
[51] = tested on: OVCAR-8 ovarian
[52] = tested on: HS 578T breast
[53] = tested on: A498 renal
[54] = tested on: SF-539 CNS
[55] = tested on: T-47D breast

CC1Cc2c(Cl)ncnc2N(C)c2ccc(Cl)cc21 (stereo not given)
602 nM: TGI [39]
78500 nM: TGI [6]
active: GI50 [1] 79.5 nM | GI50 [2] 321 nM | GI50 [3] 381 nM | GI50 [4] 342 nM | GI50 [5] 307 nM | GI50 [7] 276 nM | GI50 [8] 335 nM | GI50 [9] 386 nM | GI50 [10] 337 nM | GI50 [11] 348 nM | GI50 [13] 279 nM | GI50 [14] 232 nM | GI50 [16] 190 nM | GI50 [17] 299 nM | GI50 [18] 339 nM | GI50 [21] 411 nM | GI50 [22] 348 nM | GI50 [23] 394 nM | GI50 [25] 341 nM | GI50 [26] 382 nM | GI50 [27] 378 nM | GI50 [28] 232 nM | GI50 [29] 378 nM | GI50 [31] 314 nM | GI50 [32] 403 nM | GI50 [33] 372 nM | GI50 [34] 274 nM | GI50 [35] 280 nM | GI50 [36] 331 nM | GI50 [37] 316 nM | GI50 [39] 241 nM | GI50 [40] 185 nM | GI50 [41] 406 nM | GI50 [42] 210 nM | GI50 [44] 333 nM | GI50 [45] 319 nM | GI50 [46] 315 nM | GI50 [47] 422 nM | GI50 [48] 312 nM | GI50 [49] 309 nM | GI50 [50] 329 nM | GI50 [51] 394 nM | GI50 [52] 342 nM | GI50 [53] 240 nM
846 nM: TGI [14]
58100 nM: TGI [5]
95100 nM: TGI [23]
20600 nM: TGI [51]
691 nM: TGI [34]
547 nM: TGI [53]
3670 nM: TGI [7]
986 nM: TGI [13]
69200 nM: TGI [41]
13200 nM: TGI [46]
369 nM: TGI [16]
inactive: GI50 [6] 429 nM | GI50 [12] 510 nM | GI50 [15] 441 nM | GI50 [19] 496 nM | GI50 [20] 636 nM | GI50 [24] 467 nM | GI50 [30] 589 nM | GI50 [38] 468 nM | GI50 [43] 592 nM | GI50 [54] 513 nM | GI50 [55] 521 nM
338 nM: TGI [40]
29700 nM: TGI [48]
2200 nM: TGI [37]
1850 nM: TGI [50]
11100 nM: TGI [18] | TGI [49]
19300 nM: TGI [21]
17100 nM: TGI [15]
18200 nM: TGI [45]
1460 nM: TGI [4]
776 nM: TGI [28]
12600 nM: TGI [31]
32300 nM: TGI [44]
836 nM: TGI [35]
4740 nM: TGI [8]
12900 nM: TGI [33]
> 100000 nM: TGI [1] | TGI [2] | TGI [3] | TGI [9] | TGI [10] | TGI [11] | TGI [12] | TGI [19] | TGI [20] | TGI [22] | TGI [24] | TGI [25] | TGI [26] | TGI [27] | TGI [29] | TGI [30] | TGI [32] | TGI [36] | TGI [38] | TGI [43] | TGI [47] | TGI [52] | TGI [54] | TGI [55]
9730 nM: TGI [17]
477 nM: TGI [42]
